From patent publication US11827628B2, “Compositions and methods for inhibition of the JAK pathway” (Rigel Pharmaceuticals, Inc., priority 2005, dated 2023)
Like-named read-outs stand apart in the source and are kept apart here.

What was measured:
[1] = tested on: IL-4 stimulated expression of CD23 in human Ramos B cells (JAK-1 and JAK-3); assay: Assay for Ramos B-Cell Line Stimulated with IL-4 (CD23 upregulation, FACS); format: cell-based; conditions: read-out: IC50, Example 41
How it was run: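 Read-out: anti-CD23-PE flow cytometry on Ramos B cells, giving IC50. Cells (5×10^4 per point, RPMI + 5% serum) get compound or DMSO for 1 h at 37 °C, then IL-4 50 units/mL final for 20-24 h.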

[2] = tested on: Primary human T-cells; assay: Primary Human T-Cell Proliferation Assay Stimulated with IL-2 (CellTiter-Glo); format: cell-based; conditions: read-out: IC50, Example 42
Source text: The activity of the active compounds of the invention may further be characterized by assaying the effect of the 2,4-substituted pyrimidinediamine compounds described herein on the proliferative response of primary human T-cells. In this assay, primary human T-cells derived from peripheral blood and pre-activated through stimulation of the T-cell receptor and CD28, proliferate in culture in response to the cytokine Interleukin-2 (IL-2). This proliferative response is dependent on the activation of JAK1 and JAK3 tyrosine kinases, which phosphorylate and activate the transcription factor Stat-5. The primary human T-cells are incubated with the 2,4-substituted pyrimidinediamine compounds in the presence of IL-2 for 72 hours and at the assay endpoint intracellular ATP concentrations are measured to assess cell viability. A reduction in cell proliferation compared to control conditions is indicative of inhibition of the JAK kinase pathway. An exemplary assay of this type is described in greater detail in Example 42
Primary human T-cells derived from peripheral blood and pre-activated through stimulation of the T-cell receptor and CD28, proliferate in vitro in response to the cytokine Interleukin-2 (IL-2). This proliferative response is dependent on the activation of JAK-1 and JAK-3 tyrosine kinases, which phosphorylate and activate the transcription factor Stat-5.
Human primary T cells were prepared as follows. Whole blood was obtained from a healthy volunteer, mixed 1:1 with PBS, layered on to Ficoll Hypaque (Amersham Pharmacia Biotech, Piscataway, NJ, Catalog #17-1440-03) in 2:1 blood/PBS:ficoll ratio and centrifuged for 30 min at 4° C. at 1750 rpm. The lymphocytes at the serum: ficoll interface were recovered and washed twice with 5 volumes of PBS. The cells were resuspended in Yssel's medium (Gemini Bio-products, Woodland, CA, Catalog #400-103) containing 40 U/mL recombinant IL2 (R and D Systems, Minneapolis, MN, Catalog #202-IL (20 rig)) and seeded into a flask pre-coated with 1 μg/mL anti-CD3 (BD Pharmingen, San Diego, CA, Catalog #555336) and 5 μg/mL anti-CD28 (Immunotech, Beckman Coulter of Brea CA, Catalog #IM1376). The primary T-cells were stimulated for 3-4 days, then transferred to a fresh flask and maintained in RPMI with 10% FBS and 40 U/mL IL-2.
Primary T-cells were washed twice with PBS to remove the IL-2 and resuspended in Yssel's medium at 2×10^6 cells/mL. 50 μL of cell suspension containing 80 U/mL IL-2 was added to each well of a flat bottom 96 well black plate. For the unstimulated control, IL-2 was omitted from the last column on the plate. Compounds were serially diluted in dimethyl sulfoxide (DMSO, 99.7% pure, cell culture tested, Sigma-Aldrich, St. Louis, MO, Catalog No. D2650) from 5 mM in 3-fold dilutions, and then diluted 1:250 in Yssel's medium. 50 μL of 2× compound was added per well in duplicate and the cells were allowed to proliferate for 72 hours at 37° C.
Proliferation was measured using CellTiter-Glo® Luminescent Cell Viability Assay (Promega), which determines the number of viable cells in culture based on quantitation of the ATP present, as an indicator of metabolically active cells. The substrate was thawed and allowed to come to room temperature. After mixing the Cell Titer-Glo reagent and diluent together, 100 μL was added to each well. The plates were mixed on an orbital shaker for two minutes to induce lysis and incubated at room temperature for an additional ten minutes to allow the signal to equilibrate. Detection was performed using a Wallac Victor2 1420 multilabel counter purchased from Perkin Elmer, Shelton, CT The IC50 calculated based on the results of this assay are provided in TABLE XII.

[3] = Homo sapiens, Ramos, Ramos B-cell line stimulated with IL-4, CD23 expression by FACS
[4] = Homo sapiens, T-cell, primary human T-cell proliferation stimulated with IL-2
[5] = Homo sapiens, Ramos, Ramos B cells stimulated with IL-4, CD23 expression by FACS
[6] = Homo sapiens, T-cell, primary human T-cells stimulated with IL-2, proliferation
[7] = Ramos B cells stimulated with IL-4, CD23 expression by FACS
[8] = primary human T-cells stimulated with IL-2, proliferation
[9] = Ramos B-cell line stimulated with IL-4, CD23 expression by FACS
[10] = primary human T-cell proliferation stimulated with IL-2

CNC(=O)COc1ccc(Nc2nc(Nc3ccc(S(N)(=O)=O)cc3)ncc2C)cc1F [Compound I-154, N2-(4-Aminosulfonylphenyl)-N4-(3-fluoro-4-methylaminocarbonylmethoxyphenyl)-5-methyl-2,4-pyrimidinediamine]
IC50 [1, 3]: 276 nM | IC50 [2, 4]: 992 nM

COc1ccc(Nc2nc(Nc3cc(C)c(OC)c(S(N)(=O)=O)c3)ncc2F)cc1Cl [VI-30, N2-(3-Aminosulfonyl-4-methoxy-5-methylphenyl)-N4-(3-chloro-4-methoxyphenyl)-5-fluoro-2,4-pyrimidinediamine]
IC50 [1, 5]: 13.2 nM | IC50 [2, 6]: 170 nM

Cc1ccc(Nc2ncc(F)c(Nc3ccc(OC(F)(F)F)cc3)n2)cc1S(N)(=O)=O [VI-32, N2-(3-aminosulfonyl-4-methylphenyl)-5-fluoro-N4-(4-trofluoromethoxyphenyl)-2,4-pyrimidinediamine]
IC50 [1, 7]: 333 nM | IC50 [2, 8]: 1660 nM

N4-(4-Acetylthiomethylcarbonylphenyl)-N2-(3-aminosulfonyl-4-methylphenyl)-5-fluoro-2,4-pyrimidinediamine [IX-43]
IC50 [1, 7]: 523 nM | IC50 [2, 8]: 2800 nM

C#CCNS(=O)(=O)c1ccc(Nc2nc(Nc3cccc(S(N)(=O)=O)c3)ncc2F)cc1 [VI-75, N2-(3-Aminosulfonylphenyl)-5-fluoro-N4-[4-(prop-2-ynylaminosulfonyl)phenyl]-2,4-pyrimidinediamine]
IC50 [1, 5]: 904 nM | IC50 [2, 6]: 929 nM

CNS(=O)(=O)c1cc(Nc2ncc(F)c(Nc3ccc(Oc4ccncc4)cc3)n2)ccc1C [II-18, 5-Fluoro-N2-[3-(N-methylaminosulfony)-4-methylphenyl]-5-fluoro-N4-[4-(4-pyridyloxy)phenyl]-2,4-pyrimidinediamine]
IC50 [1, 9]: 2040 nM | IC50 [2, 10]: 3310 nM

CCC(=O)NS(=O)(=O)c1cc(Nc2ncc(F)c(Nc3ccc(OCC#N)cc3)n2)ccc1C [Compound I-30, N4-(4-Cyanomethyleneoxy)phenyl-5-fluoro-N2-(4-methyl-3-propionylaminosulfonyl)phenyl-2,4-pyrimidinediamine]
IC50 [1, 9]: 5430 nM | IC50 [2, 10]: 3570 nM

Cc1ccc(Nc2ncc(F)c(Nc3ccc(CCC(N)=O)cc3)n2)cc1S(N)(=O)=O [III-47, N4-[4-(2-Aminocarboxylethylene)phenyl]-5-fluoro-N2-(4-methyl-3-aminosulfonylphenyl)-2,4-pyrimidinediamine]
IC50 [1, 9]: 211 nM | IC50 [2, 10]: 366 nM

NS(=O)(=O)c1cc(Nc2ncc(F)c(Nc3ccc(OCC(F)(F)F)cc3)n2)ccc1Cl [VI-48, N2-(3-Aminosulfonyl-4-chlorophenyl)-5-fluoro-N4-(4-trifluoromethylmethyleneoxyphenyl)-2,4-pyrimidinediamine]
IC50 [1, 7]: 315 nM | IC50 [2, 8]: 2240 nM

CC1(C)Oc2cc(Nc3nc(Nc4ccc(Cl)c(S(N)(=O)=O)c4)ncc3F)cnc2N(CC#N)C1=O [Compound V-15, N2-(3-Aminosulfonyl-4-chlorophenyl)-N4-[2,2-dimethyl-3-oxo-4-cyanomethyl-5-pyrid[1,4]oxazin-7-yl]-5-fluoro-2,4-pyrimidinediamine]
IC50 [1, 7]: 173 nM | IC50 [2, 8]: 9310 nM

CCNC(=O)NCc1cccc(Nc2nc(Nc3ccc(S(N)(=O)=O)cc3)ncc2F)c1 [III-116, N2-(4-aminosulfonyl)phenyl-N4-(3-ethylaminocarbonylaminomethyl)phenyl-5-fluoro-2,4-pyrimidinediamine]
IC50 [1, 7]: 197 nM | IC50 [2, 8]: 3950 nM

CN1CCN(S(=O)(=O)c2ccc(Nc3ncc(F)c(Nc4ccc(OCC#N)cc4)n3)cc2)CC1 [Compound I-18, N4-(4-Cyanomethoxy)phenyl-5-fluoro-N2-[4-(4-methylpiperazin-1-yl)sulfonyl]phenyl-2,4-pyrimidinediamine]
IC50 [1, 9]: 283 nM | IC50 [2, 10]: 1490 nM

Cc1ccc(Nc2ncc(F)c(Nc3ccc(-c4ccccn4)c(OCCl)c3)n2)cc1S(N)(=O)=O [Compound I-174, N2-(3-Aminosulfonyl-4-methylphenyl)-5-fluoro-N4-[4-(2-pyridinyl)-3-chloromethyleneoxyphenyl]-2,4-pyrimidinediamine]
IC50 [1, 9]: 117 nM | IC50 [2, 10]: 1230 nM

NS(=O)(=O)c1ccc(Nc2ncc(F)c(Nc3ccc(CCCF)cc3)n2)cc1 [VI-82, N2-(4-Aminosulfonylphenyl)-5-fluoro-N4-[4-(3-fluoropropyl)phenyl]-2,4-pyrimidinediamine]
IC50 [1, 5]: 212 nM | IC50 [2, 6]: 1630 nM

CNS(=O)(=O)c1cc(Nc2ncc(F)c(Nc3ccc(OCc4ccncc4)cc3)n2)ccc1C [Compound I-195, 5-Fluoro-N2-[3-(N-methylaminosulfony)-4-methylphenyl]-5-fluoro-N4-[4-(4-pyridinyl)methyleneoxyphenyl]-2,4-pyrimidinediamine]
IC50 [1, 9]: 82.6 nM | IC50 [2, 10]: 127 nM

Cc1cc(Nc2nc(Nc3ccc(S(N)(=O)=O)cc3)ncc2F)ccc1OCc1ccccn1 [Compound I-176, N2-(4-Aminosulfonylphenyl)-5-fluoro-N4-[4-(2-pyridinyl)-3-methylmethyleneoxyphenyl]-2,4-pyrimidinediamine]
IC50 [1, 9]: 259 nM | IC50 [2, 10]: 1690 nM

NC(=O)NCc1ccc(Nc2nc(Nc3ccc(S(N)(=O)=O)cc3)ncc2F)cc1 [III-32, N4-(4-Aminocarbonylaminomethylphenyl)-N2-(4-aminosulfonylphenyl)-5-fluoro-2,4-pyrimidinediamine]
IC50 [1, 3]: 4400 nM | IC50 [2, 4]: 3320 nM

NS(=O)(=O)c1cccc(Nc2ncc(F)c(Nc3ccc(Cc4ccccc4)cc3)n2)c1 [III-62, N2-(3-Aminosulfonylphenyl)-N4-(4-benzylphenyl)-5-fluoro-2,4-pyrimidinediamine]
IC50 [1, 3]: 172 nM | IC50 [2, 4]: 699 nM

NS(=O)(=O)c1cccc(Nc2ncc(F)c(Nc3ccc(OCc4ccccn4)cc3)n2)c1 [Compound I-162, N2-(3-Aminosulfonylphenyl)-5-fluoro-N4-[4-(2-pyridinyl)methyleneoxyphenyl]-2,4-pyrimidinediamine]
IC50 [1, 9]: 51 nM | IC50 [2, 10]: 136 nM

Cc1cc(CCC#N)ccc1Nc1nc(Nc2cccc(S(N)(=O)=O)c2)ncc1F [III-26, N2-(3-Aminosulfonylphenyl)-N4-(4-cyanoethylene-2-methylphenyl)-5-fluoro-2,4-pyrimidinediamine]
IC50 [1, 9]: 162 nM | IC50 [2, 10]: 583 nM

N2-(3-Aminosulfonyl-4-methoxy-5-methylphenyl)-N4-(4-benzylphenyl)-5-fluoro-2,4-pyrimidinediamine [III-65]
IC50 [1, 9]: 209 nM | IC50 [2, 10]: 936 nM

Cc1ccc(Nc2ncc(F)c(Nc3ccc(C(=O)N4CCN(S(C)(=O)=O)CC4)cc3)n2)cc1S(N)(=O)=O [IX-30, N2-(3-Aminosulfonyl-4-methylphenyl)-5-fluoro-N4-[4-(1-methanesulfonyl-4-piperizinyl)carbonylphenyl]-2,4-pyrimidinediamine]
IC50 [1, 7]: 1940 nM | IC50 [2, 8]: 6800 nM

C#CCNS(=O)(=O)c1ccc(Nc2nc(Nc3ccc(C)c(S(N)(=O)=O)c3)ncc2F)cc1 [VI-76, N2-(3-Aminosulfonyl-4-methylphenyl)-5-fluoro-N4-[4-(prop-2-ynylaminosulfonyl)phenyl]-2,4-pyrimidinediamine]
IC50 [1, 5]: 549 nM | IC50 [2, 6]: 783 nM
